The values below come from ChEMBL document CHEMBL4483862, “Open-source discovery of chemical leads for next-generation chemoprotective antimalarials” (2018).

This test relates to Plasmodium berghei. Briefly: Luciferase/luciferin-expressing antifolate-resistant parasites were used to infect a culture of HepG2 cells that were pre-incubated with compounds. Infected hepatocytes emit light due to the luciferase reaction. Assay results are presented as the percent inhibition of light emission compared to control. […]. To be noted: sporozoite; for IC90: read-out: LUCIFERASE INFECTION ASSAY - IC90. It is filed as functional.

The mark [1] stands for this setting: read-out: LUCIFERASE INFECTION ASSAY - IC50.

On to `O=C(/C=C/c1cn(-c2ccccc2)nc1-c1ccc(F)cc1)NCC1(N2CCCCC2)CCCCC1`, for which the IC90 was > 10 µM. For the same compound, the IC50 under setting [1] was > 10 µM.

As for `O=S(=O)(c1cc(C(F)(F)F)cc(C(F)(F)F)c1)N1CCc2c([nH]c3ccccc23)C1C(F)(F)F` (stereo unspecified), the IC90 was > 6.39 µM. For the same compound, where the note is “PBLUC_HILL_SLOPE 1.65, PBLUC_R_SQUARED 0.099, read-out: LUCIFERASE INFECTION ASSAY - IC50”, the IC50 was 5.02 µM.

For the compound `O=C(c1c[nH]c(-c2ccccn2)c1)c1cc(Cl)ccc1O`, the IC90 is > 10 µM. Further, the IC50 (HEPG2TOX_HILL_SLOPE 1.74, HEPG2TOX_R_SQUARED 0.992, PBLUC_HILL_SLOPE 2.29, PBLUC_R_SQUARED 0.459, read-out: LUCIFERASE INFECTION ASSAY - IC50) stood at 5.42 µM.

Turning to `CCCc1cc(=O)nc(SCC(=O)C23CC4CC(CC(C4)C2)C3)[nH]1`, the IC90 is 9.67 µM. The IC50 (PBLUC_HILL_SLOPE 3.05, PBLUC_R_SQUARED 0.0755, read-out: LUCIFERASE INFECTION ASSAY - IC50) was 4.7 µM.

With `CC1CCN(Cc2csc(NC(=O)c3ccc4ncsc4c3)n2)CC1`, the IC90 is > 10 µM. In addition, the IC50 (HEPG2TOX_HILL_SLOPE 0.129, HEPG2TOX_R_SQUARED 0.115, read-out: LUCIFERASE INFECTION ASSAY - IC50) was > 10 µM.

`Cc1nn(C(C)(C)C)c(C)c1/C=N/OC(=O)Nc1ccc(Cl)cc1`: the IC90 was 0.27 µM. Further, the IC50 under setting [1] worked out at 0.0825 µM.

Regarding `Cc1cc[n+](CC(=O)Nc2ccc(Br)c(C)c2)cc1`, the IC90 was > 10 µM. In addition, the IC50 (HEPG2TOX_HILL_SLOPE 5.04, HEPG2TOX_R_SQUARED 0.103, PBLUC_HILL_SLOPE 18.3, PBLUC_R_SQUARED 0.0767, read-out: LUCIFERASE INFECTION ASSAY - IC50) was 9.35 µM.

`CC(C)CN1C(=O)N(CCCc2cccnc2)C(=O)C12CCN(C(C)CCc1ccccc1)CC2` (stereo unspecified): the IC90 was > 6.92 µM. In addition, the IC50 (PBLUC_HILL_SLOPE 2.19, PBLUC_R_SQUARED 0.623, read-out: LUCIFERASE INFECTION ASSAY - IC50) was determined as 3.61 µM.

Turning to `Cn1/c(=N/N=C2\C(=O)N(Cc3ccccc3)c3ccccc32)sc2ccccc21`, the IC90 was > 10 µM. Further, under setting [1], the IC50 is > 10 µM.

For `OCCN1N=C2c3cc(Cl)ccc3SCC2C1c1ccc(Cl)cc1` (stereo unspecified), the IC90 was > 8.7 µM. Moreover, the IC50 (PBLUC_HILL_SLOPE 3.12, PBLUC_R_SQUARED 0.594, read-out: LUCIFERASE INFECTION ASSAY - IC50) came to 7.08 µM.

With `Cc1cc2ncc(-c3ccnc(SCc4cccc(Cl)c4)n3)c(C)n2n1`, the IC90 stood at 8.63 µM. The IC50 (PBLUC_HILL_SLOPE 3.9, PBLUC_R_SQUARED 0.625, read-out: LUCIFERASE INFECTION ASSAY - IC50) came to 4.91 µM.

As to `CCc1cccc(CC)c1N1C(=O)C=CC1=O`, the 90% effect concentration (IC90) came out at 5.85 µM. Further, the IC50 (FFLUC_HILL_SLOPE 12.6, FFLUC_R_SQUARED 0.68, HEPG2TOX_HILL_SLOPE 16.7, HEPG2TOX_R_SQUARED 0.936, PBLUC_HILL_SLOPE 11.7, PBLUC_R_SQUARED 0.538, read-out: LUCIFERASE INFECTION ASSAY - IC50) worked out at 4.85 µM.

Regarding `N#Cc1ccc(-c2cnc3cnc(-c4cnn(Cc5ccccc5)c4)cn23)cc1`, the IC90 is > 8.77 µM. For the same compound, the IC50 (FFLUC_HILL_SLOPE 0.364, FFLUC_R_SQUARED 0.0429, PBLUC_HILL_SLOPE 3.85, PBLUC_R_SQUARED 0.0396, read-out: LUCIFERASE INFECTION ASSAY - IC50) amounted to 7.64 µM.

As for `N=S(=O)(c1ccc(Cl)cc1)c1cccs1` (stereo unspecified), the IC90 is > 12.8 µM. The IC50 under setting [1] was > 12.8 µM.

Take `CS(=O)(=O)Nc1ccc(-c2csc(NC(=O)c3ccc4ncsc4c3)n2)cc1`: the IC90 was > 10 µM. In addition, the IC50 under setting [1] is > 10 µM.

For `Cc1noc(C)c1CSc1ccccc1C(=O)NNC(=O)c1ccc2ccccc2n1`, the IC90 stood at 6.77 µM. The IC50 (HEPG2TOX_HILL_SLOPE 3.33, HEPG2TOX_R_SQUARED 0.906, PBLUC_HILL_SLOPE 141, PBLUC_R_SQUARED 0.0106, read-out: LUCIFERASE INFECTION ASSAY - IC50) was 6.66 µM.

Take `COc1ccc(-c2cc(C(=O)NNC(=S)NC3CC4CCC3C4)[nH]n2)cc1` (stereo unspecified): the IC90 is > 10 µM. Besides, under setting [1], the IC50 is > 10 µM.

Take `Cn1c(CC(=O)NNC(=O)/C=C/c2cccc(C(F)(F)F)c2)nc2ccccc21`: the IC90 was determined as 3.99 µM. The IC50 under setting [1] amounted to 3.4 µM.

Turning to `COC(=O)c1c(COC(=O)/C=C/c2ccc(OCC#N)c(OC)c2)nc2ccccc2c1-c1ccccc1`, the IC90 is > 10 µM. Further, the half-maximal inhibitory concentration (IC50) under setting [1] is > 10 µM.

`O=C1CCc2cc(-c3csc(NC(=O)c4ccc(-n5cnc6ccccc65)cc4)n3)ccc2N1`: the IC90 stood at 3.68 µM. Further, under “PBLUC_HILL_SLOPE 2.11, 11.5, PBLUC_R_SQUARED 0.409, 0.367, read-out: LUCIFERASE INFECTION ASSAY - IC50”, the IC50 turned out to be 3.63 µM.

In the case of `CS(=O)(=O)C(C#N)=Cc1ccccc1OCc1c(Cl)cccc1Cl`, the IC90 is > 8.63 µM. For the same compound, the IC50 (FFLUC_HILL_SLOPE 9.87, FFLUC_R_SQUARED 0.717, read-out: LUCIFERASE INFECTION ASSAY - IC50) was > 8.63 µM.

Turning to `Cc1ccc(-c2cs/c(=N\c3ccc(C)c(C)c3)n2/N=C/c2ccc(O)cc2O)cc1`, the IC90 is > 10 µM. Besides, the IC50 under setting [1] was > 10 µM.

Regarding `COc1ccccc1N(Cc1nc(N)nc(Nc2ccc(C)cc2)n1)S(=O)(=O)c1cccs1`, the 90% effect concentration (IC90) is 4.3 µM. Further, the IC50 (HEPG2TOX_HILL_SLOPE 0.853, HEPG2TOX_R_SQUARED 0.978, PBLUC_HILL_SLOPE 2.92, PBLUC_R_SQUARED 0.627, read-out: LUCIFERASE INFECTION ASSAY - IC50) turned out to be 2.03 µM.

As to `N#C/C(=C\c1ccc([N+](=O)[O-])s1)C(N)=S`, the IC90 was > 13.8 µM. In addition, the IC50 (FFLUC_HILL_SLOPE 3.11, FFLUC_R_SQUARED 0.767, read-out: LUCIFERASE INFECTION ASSAY - IC50) is > 13.8 µM.

Regarding `FC(F)Sc1ccc(NC(=S)NC2CCCc3ccccc32)cc1` (stereo unspecified), the IC90 was > 10 µM. The IC50 under setting [1] is > 10 µM.

As to `Cc1cc(C)nc(-n2nc(Nc3ccccc3)cc2Nc2ccccc2)n1`, the IC90 was > 10 µM. The IC50 (FFLUC_HILL_SLOPE 18.6, FFLUC_R_SQUARED 0.489, PBLUC_HILL_SLOPE 15, PBLUC_R_SQUARED 0.577, read-out: LUCIFERASE INFECTION ASSAY - IC50) was determined as 9.07 µM.

On to `O=C(NNC1c2ccccc2-c2ccccc21)c1ccccc1`, for which the IC90 is > 10 µM. Also, the IC50 under setting [1] was 8.58 µM.

Take `CCOC(=O)c1c(-c2ccc(C)o2)csc1NC(=O)CN(C)CC(=O)Nc1ccc(Cl)c(C(F)(F)F)c1`: the IC90 was > 10 µM. The IC50 under setting [1] was > 10 µM.

Broadly, the IC50 is the concentration that inhibits the measured activity by half. Broadly, the IC90 is the concentration needed for an effect of 90%.
